Consider 1 sequence from patent US8956622B2, “Peptidic antagonists of class III semaphorins/neuropilins complexes” (INSERM—Institut National de la Sante et de la Recherche …, priority 2005, dated 2015).

Like-named read-outs stand apart in the source and are kept apart here. A value given as a limit tells only on which side of the number the result lay.

This test has as its system cortical axons collapses triggered by Sema3A. Nature of the test: Cortical axons collapses triggered by Sema3A in neocortex explants. It counts as cell-based, mouse. The following applies: Sema3A 100 ng/ml, peptide 10^−8 to 10^−11 M, 2 h, read-out: IC50, inhibition of cortical axons collapses induced by Sema3A. How it is done:
The inhibitory axon growth property of Sema 3A is supposed to be linked to its induction capacity of growth cone collapses. To investigate the effect of the pTM-NRP1 peptide on the Sema 3A functional properties, the growth of cortical neurons was analyzed in the presence or not of Sema 3A and of pTM-NRP1 or pTM-NRP1^mut (NRP1 TM with a triple G→V mutation) peptides.
Laminine/Poly-L-Lysine substrates have been made by adding 980 μL of Gey's balanced salt solution (GBSS, SIGMA) to 10 μL laminine (1 mg/ml, SIGMA) and to 10 μL poly-L-Lysine (10 mg/ml, SIGMA). Sterile coverslips have been placed in a big dish and added with substrate (100 μL). Then, ‘sandwiches’ have been prepared by covering each coverslip with a second one. After an incubation for at least 30 min at 37° C. under 5% CO2 in air, ‘sandwiches’ have been opened and each coverslip has been rinsed with deionized water. Explants have been cultured on dried coverslips.
Neocortex fragments prepared from E15 mouse embryos (E1 determined as the first day of embryonic development by detection of vaginal plug) have been transferred on a tissue chopper disk. Tissue have been cut into 200×200 μm by rotating the disk by 90° after the first cut. Cortex cubes have been collected with a spatula and put into culture medium in a Petri dish. Two coverslips with substrate have been placed in a small Petri dish (50 mm diameter, FALCON). After adding 750 μl of culture medium, the coverslips should stay in the incubator for at least 10 minutes. Using a dissecting microscope, forty to fifty cortical explants have been collected in 20 μl culture medium and carefully placed onto the coverslips. After 15 min at room temperature, most explants have adhered to their substrate. 2250 μl of culture medium have been slowly added to each dish. Then, explants cultures have been kept at 37° C. under 5% CO2 in air.
A radial outgrowth could be seen after 18-24 h in culture, and individual fibres and growth cones could have therefore been analyzed. Products tested on growth cones have been directly added in culture medium for 2 h: • purified Sema3A (100 ng/ml) prepared from conditioned medium of HEK293 cells stably expressing Sema3A. The purification was performed by using the anti-Flag system, SIGMA) • pTM-NRP1 (10^−8, 10^−9, 10^−10 and 10^−11 M), • 10^−8M mpTM-NRP1, • 10^−8M pTM-ErbB2w (SEQ ID NO. 18).
After incubation, 4% formaldehyde has been directly added in culture medium (v/v) for 15min. Then the solution has been removed and replaced by 4% formaldehyde for 15 min.

Regarding ILITIIAMSALGVLLGAVCGVVL [pTM-NRP1], the concentration for half-maximal inhibition (IC50) was approximately 0.01 nM. Besides, the concentration for half-maximal inhibition (IC50) (listed as peptide corresponding to the transmembrane domain of NRP1) was less than 0.01 nM.

Broadly, the IC50 is the concentration that inhibits the measured activity by half.
